Data from ChEMBL document CHEMBL1914348, “Discovery of pyrazoles as novel FPR1 antagonists” (Bioorg Med Chem Lett, 2011).
One block for each compound: values may come before it. Activity calls are given as the source filed them. The rule behind the calls is not given here.

Experiments:
[1] = target: T1, fMet-Leu-Phe receptor (Homo sapiens) (UniProt P21462); experiment: Antagonist activity at human FPR1 in human neutrophils assessed as inhibition of fMLF-stimulated intracellular calcium mobilisation at 50 uM by FLIPR assay; format: functional, cell-based
T1 sequence (whole entry): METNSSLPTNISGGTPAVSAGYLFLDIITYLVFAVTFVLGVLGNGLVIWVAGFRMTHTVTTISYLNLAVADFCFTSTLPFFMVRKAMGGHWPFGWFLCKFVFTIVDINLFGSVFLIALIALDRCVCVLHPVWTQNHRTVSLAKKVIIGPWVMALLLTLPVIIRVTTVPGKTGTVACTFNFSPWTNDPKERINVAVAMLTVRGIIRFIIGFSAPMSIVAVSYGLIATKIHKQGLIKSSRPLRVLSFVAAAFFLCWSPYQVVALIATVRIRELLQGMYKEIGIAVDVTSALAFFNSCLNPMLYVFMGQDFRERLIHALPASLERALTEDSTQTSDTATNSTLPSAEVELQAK

fMet-Leu-Phe receptor [2] = target: T2, fMet-Leu-Phe receptor (Homo sapiens, UniProt P21462); experiment: Antagonist activity at human FPR1 in human neutrophils assessed as inhibition of fMLF-stimulated intracellular calcium mobilisation by FLIPR assay; format: functional, cell-based
T2 sequence (P21462 whole entry): T1 sequence (whole entry)

Cytochrome P450 2C19 = Cytochrome P450 2C19 (Homo sapiens, UniProt P33261); experiment: Inhibition of CYP2C19; format: ADME
Cytochrome P450 2C9 = Cytochrome P450 2C9 (Homo sapiens, UniProt P11712); experiment: Inhibition of CYP2C9; format: ADME
Cytochrome P450 1A2 = target: T3, Cytochrome P450 1A2 (Homo sapiens, UniProt P05177); experiment: Inhibition of CYP1A2; format: ADME
T3 sequence (P05177 whole entry): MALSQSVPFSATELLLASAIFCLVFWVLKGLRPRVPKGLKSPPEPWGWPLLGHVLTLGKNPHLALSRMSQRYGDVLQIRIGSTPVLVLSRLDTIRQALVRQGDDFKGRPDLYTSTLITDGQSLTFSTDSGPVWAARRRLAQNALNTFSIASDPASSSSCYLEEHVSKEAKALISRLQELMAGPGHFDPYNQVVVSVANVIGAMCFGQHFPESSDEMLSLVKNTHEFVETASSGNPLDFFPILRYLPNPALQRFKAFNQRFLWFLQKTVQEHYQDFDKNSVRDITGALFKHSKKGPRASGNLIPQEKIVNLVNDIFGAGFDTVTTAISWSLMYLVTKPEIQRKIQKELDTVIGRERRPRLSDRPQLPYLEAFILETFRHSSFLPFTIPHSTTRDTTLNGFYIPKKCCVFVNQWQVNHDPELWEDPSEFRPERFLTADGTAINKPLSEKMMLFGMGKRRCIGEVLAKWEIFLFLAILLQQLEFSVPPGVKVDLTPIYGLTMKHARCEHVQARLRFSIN

[3] = Intrinsic clearance in Sprague-Dawley rat microsomes; format: ADME, Microsome
[4] = Fraction unbound in human; format: ADME, organism-based; conditions: in vivo
Cavia porcellus = organism: Cavia porcellus; experiment: Inhibition of guinea pig FPR1
Cytochrome P450 2D6 = Cytochrome P450 2D6 (Homo sapiens, UniProt P10635); experiment: Inhibition of CYP2D6; format: ADME
[5] = Intrinsic clearance in Sprague-Dawley rat hepatocytes assessed per 10 '6 cells; format: ADME, cell-based, Liver, Hepatocyte
[6] = Chemical stability of the compound assessed as half life; format: physicochemical
[7] = Intrinsic clearance in human microsomes; format: ADME, Microsome
Cytochrome P450 3A4 = Cytochrome P450 3A4 (Homo sapiens, UniProt P08684); experiment: Inhibition of CYP3A4; format: ADME
[8] = Intrinsic clearance in human hepatocytes assessed per 10 '6 cells; format: ADME, cell-based, Liver, Hepatocyte
[9] = Lipophilicity, log D of the compound; format: physicochemical; conditions: octanol/water
fMet-Leu-Phe receptor [10] = target: T2, fMet-Leu-Phe receptor; experiment: Antagonist activity at FPR1 in whole blood assessed as CD11 level; format: functional, tissue-based; conditions: read-out: pA2 (converted)
[11] = Fraction unbound in rat; format: ADME, organism-based; conditions: in vivo
[12] = target: T4, fMet-Leu-Phe receptor (Mus musculus) (UniProt P33766); experiment: Inhibition of mouse FPR1
T4 sequence (whole entry): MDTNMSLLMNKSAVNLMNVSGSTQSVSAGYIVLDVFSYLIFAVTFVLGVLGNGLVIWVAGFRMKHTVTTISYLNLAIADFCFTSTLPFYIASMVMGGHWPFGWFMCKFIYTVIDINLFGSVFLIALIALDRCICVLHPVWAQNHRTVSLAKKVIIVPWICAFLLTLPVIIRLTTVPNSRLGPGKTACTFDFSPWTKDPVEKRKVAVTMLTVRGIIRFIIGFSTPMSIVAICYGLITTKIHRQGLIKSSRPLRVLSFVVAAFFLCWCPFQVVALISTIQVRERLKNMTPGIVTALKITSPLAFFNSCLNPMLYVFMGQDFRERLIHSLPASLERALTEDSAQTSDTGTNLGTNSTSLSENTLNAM

[13] = Solubility of the compound; format: physicochemical
Rattus norvegicus = organism: Rattus norvegicus; experiment: Inhibition of rat FPR1

Sequence of Cytochrome P450 2C19 (P33261 whole entry): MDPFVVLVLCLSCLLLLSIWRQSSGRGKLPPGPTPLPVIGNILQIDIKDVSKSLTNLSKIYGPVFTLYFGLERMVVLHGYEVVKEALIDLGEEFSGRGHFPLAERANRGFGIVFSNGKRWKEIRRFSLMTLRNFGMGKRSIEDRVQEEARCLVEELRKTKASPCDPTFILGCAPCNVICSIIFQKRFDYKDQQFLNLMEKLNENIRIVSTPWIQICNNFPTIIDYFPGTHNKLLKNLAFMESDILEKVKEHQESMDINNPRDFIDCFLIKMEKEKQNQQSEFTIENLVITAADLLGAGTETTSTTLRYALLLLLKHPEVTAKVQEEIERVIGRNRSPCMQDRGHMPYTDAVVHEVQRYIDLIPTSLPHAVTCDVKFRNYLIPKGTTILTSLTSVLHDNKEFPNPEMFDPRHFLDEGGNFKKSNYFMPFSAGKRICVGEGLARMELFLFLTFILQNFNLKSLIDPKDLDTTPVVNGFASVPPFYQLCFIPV
Sequence of Cytochrome P450 3A4 (P08684 whole entry): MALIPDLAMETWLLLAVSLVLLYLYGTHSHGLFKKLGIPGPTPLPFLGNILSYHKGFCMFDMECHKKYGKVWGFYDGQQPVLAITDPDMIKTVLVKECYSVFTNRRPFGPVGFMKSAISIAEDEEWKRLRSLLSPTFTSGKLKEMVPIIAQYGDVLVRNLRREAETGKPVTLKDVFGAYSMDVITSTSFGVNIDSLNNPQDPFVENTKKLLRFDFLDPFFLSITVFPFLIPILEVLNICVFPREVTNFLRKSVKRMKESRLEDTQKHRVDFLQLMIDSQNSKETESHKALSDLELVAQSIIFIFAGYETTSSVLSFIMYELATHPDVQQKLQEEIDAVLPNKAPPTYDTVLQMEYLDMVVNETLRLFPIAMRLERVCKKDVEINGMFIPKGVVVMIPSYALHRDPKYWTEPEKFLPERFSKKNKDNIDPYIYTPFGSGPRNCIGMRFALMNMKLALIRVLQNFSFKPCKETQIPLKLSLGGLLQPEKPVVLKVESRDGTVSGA
Sequence of Cytochrome P450 2C9 (P11712 whole entry): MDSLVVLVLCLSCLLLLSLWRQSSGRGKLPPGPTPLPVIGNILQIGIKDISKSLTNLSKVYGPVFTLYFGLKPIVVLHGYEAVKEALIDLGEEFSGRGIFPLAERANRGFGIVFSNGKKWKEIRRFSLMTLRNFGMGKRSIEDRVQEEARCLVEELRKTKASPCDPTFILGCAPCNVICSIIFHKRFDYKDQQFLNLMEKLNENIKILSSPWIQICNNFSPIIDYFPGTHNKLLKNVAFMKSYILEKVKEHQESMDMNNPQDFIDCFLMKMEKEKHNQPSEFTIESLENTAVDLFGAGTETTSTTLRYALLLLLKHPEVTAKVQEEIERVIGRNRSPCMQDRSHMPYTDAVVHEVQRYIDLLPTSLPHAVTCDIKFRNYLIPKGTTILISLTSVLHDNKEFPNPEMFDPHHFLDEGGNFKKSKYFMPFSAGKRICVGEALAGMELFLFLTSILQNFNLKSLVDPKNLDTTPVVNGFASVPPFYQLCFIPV
Sequence of Cytochrome P450 2D6 (P10635 whole entry): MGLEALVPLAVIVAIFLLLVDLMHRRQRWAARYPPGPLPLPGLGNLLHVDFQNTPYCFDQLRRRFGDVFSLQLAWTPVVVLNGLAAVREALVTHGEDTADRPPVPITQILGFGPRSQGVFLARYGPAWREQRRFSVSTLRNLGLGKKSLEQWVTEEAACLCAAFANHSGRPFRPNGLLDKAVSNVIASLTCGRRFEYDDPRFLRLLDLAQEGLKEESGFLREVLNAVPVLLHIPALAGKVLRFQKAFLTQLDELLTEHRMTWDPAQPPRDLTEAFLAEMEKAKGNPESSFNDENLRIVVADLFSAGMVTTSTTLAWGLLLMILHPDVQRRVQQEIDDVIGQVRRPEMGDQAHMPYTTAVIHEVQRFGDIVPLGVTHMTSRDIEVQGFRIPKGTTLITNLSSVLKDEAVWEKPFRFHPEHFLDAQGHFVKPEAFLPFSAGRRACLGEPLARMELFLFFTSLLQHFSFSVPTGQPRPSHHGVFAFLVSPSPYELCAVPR

inhibition [1]: < 25%
SMILES: CCC(CC)NC(=O)c1cnn(C)c1NS(=O)(=O)c1ccc(C)cc1

IC50 (fMet-Leu-Phe receptor [2]): 5.01 µM
SMILES: CCC(CC)NC(=O)c1cnn(-c2ccccc2)c1NS(=O)(=O)c1ccc(-c2cnco2)cc1

IC50 (fMet-Leu-Phe receptor [2]): 1 µM
SMILES: Cc1nn(-c2ccccc2)c(NS(=O)(=O)C2CCCCC2)c1C(=O)N[C@@H](C)C(C)(C)C

IC50 (fMet-Leu-Phe receptor [2]): 0.0794 µM
SMILES: CCN(C(=O)c1cnn(-c2ccccc2)c1NS(=O)(=O)c1ccc(-c2cnco2)cc1)C1CCCCC1

IC50 (fMet-Leu-Phe receptor [2]): 0.501 µM
SMILES: Cc1ccc(S(=O)(=O)Nc2c(C(=O)N[C@H](C)C(C)(C)C)c(C)nn2-c2ccccc2)cc1

inhibition [1]: < 25%
SMILES: Cc1nn(-c2ccccc2)c(NS(=O)(=O)c2cccc(CN3CCOCC3)c2)c1C(=O)N[C@@H](C)C(C)(C)C

IC50 (fMet-Leu-Phe receptor [2]): 1 µM
SMILES: Cc1ccc(S(=O)(=O)Nc2c(C(=O)NC3CCCCC3C)cnn2-c2ccccc2)cc1 (mixture of isomers)

IC50 (Cytochrome P450 2C19): > 10 µM
IC50 (Cytochrome P450 2C9): > 10 µM
IC50 (Cytochrome P450 1A2): > 10 µM
microsomal CLint [3]: 13 µL/min/mg
fraction unbound [4]: 0.06
inhibition (Cavia porcellus): inactive
IC50 (Cytochrome P450 2D6): > 10 µM
hepatocyte CLint [5]: 4 µL/min/1e6 cells
IC50 (fMet-Leu-Phe receptor [2]): 0.0251 µM
half-life [6]: > 41.7 days
microsomal CLint [7]: 5 µL/min/mg
IC50 (Cytochrome P450 3A4): > 10 µM
hepatocyte CLint [8]: < 3 µL/min/1e6 cells
logD [9]: 0.5
Kb (fMet-Leu-Phe receptor [10]): 0.126 µM
fraction unbound [11]: 0.1
inhibition [12]: inactive
solubility [13]: > 1000 µM
inhibition (Rattus norvegicus): inactive
SMILES: Cc1nn(-c2ccc(F)cc2)c(NS(=O)(=O)c2ccc(C#N)cc2)c1C(=O)N[C@@H](C)C(C)(C)C

inhibition [1]: < 25%
SMILES: CNC(=O)c1cnn(-c2ccccc2)c1NS(=O)(=O)c1ccc(C)cc1

IC50 (fMet-Leu-Phe receptor [2]): 0.501 µM
SMILES: CCC(CC)NC(=O)c1c(C)nn(-c2ccccc2)c1NS(=O)(=O)c1ccc(C)cc1

IC50 (fMet-Leu-Phe receptor [2]): 0.794 µM
SMILES: Cc1ccc(S(=O)(=O)Nc2c(C(=O)NCc3ccc(C)cc3C)cnn2-c2ccccc2)cc1

IC50 (Cytochrome P450 2C19): > 10 µM
IC50 (Cytochrome P450 2C9): > 10 µM
IC50 (Cytochrome P450 1A2): > 10 µM
microsomal CLint [3]: 53 µL/min/mg
fraction unbound [4]: 0.011
inhibition (Cavia porcellus): inactive
IC50 (Cytochrome P450 2D6): > 10 µM
hepatocyte CLint [5]: 12 µL/min/1e6 cells
IC50 (fMet-Leu-Phe receptor [2]): 0.0794 µM
half-life [6]: > 41.7 days
microsomal CLint [7]: 40 µL/min/mg
IC50 (Cytochrome P450 3A4): > 10 µM
hepatocyte CLint [8]: 7 µL/min/1e6 cells
logD [9]: 1.4
Kb (fMet-Leu-Phe receptor [10]): 0.398 µM
fraction unbound [11]: 0.042
inhibition [12]: inactive
solubility [13]: > 1000 µM
inhibition (Rattus norvegicus): inactive
SMILES: Cc1ccc(S(=O)(=O)Nc2c(C(=O)N[C@@H](C)C(C)(C)C)c(C)nn2-c2ccccc2)cc1

IC50 (fMet-Leu-Phe receptor [2]): 0.0126 µM
SMILES: Cc1nn(-c2ccc(F)cc2)c(NS(=O)(=O)c2ccc(C(F)(F)F)cc2)c1C(=O)N[C@@H](C)C(C)(C)C

IC50 (fMet-Leu-Phe receptor [2]): 1.58 µM
SMILES: CCC(CC)NC(=O)c1ncn(-c2ccccc2)c1NS(=O)(=O)c1ccc(C)cc1

IC50 (fMet-Leu-Phe receptor [2]): 0.794 µM
SMILES: Cc1ccc(S(=O)(=O)Nc2c(C(=O)NC3CCCCC3)c(C)nn2-c2ccccc2)cc1

IC50 (fMet-Leu-Phe receptor [2]): 0.0251 µM
SMILES: Cc1ccc(S(=O)(=O)Nc2c(C(=O)N[C@@H](C)C(C)(C)C)c(C(F)(F)F)nn2-c2ccccc2)cc1

IC50 (fMet-Leu-Phe receptor [2]): 5.01 µM
SMILES: CCC(CC)NC(=O)c1cnn(-c2ccccc2)c1NS(=O)(=O)c1ccccc1

IC50 (fMet-Leu-Phe receptor [2]): 3.16 µM
SMILES: Cc1ccc(S(=O)(=O)Nc2c(C(=O)N(C)C3CCCCC3)c(C)nn2-c2ccccc2)cc1

IC50 (fMet-Leu-Phe receptor [2]): 0.126 µM
SMILES: Cc1ccc(S(=O)(=O)Nc2c(C(=O)NC(C)C(C)(C)C)c(C)nn2-c2ccccc2)cc1 (configuration not stated)

IC50 (fMet-Leu-Phe receptor [2]): 3.98 µM
SMILES: CCC(CC)NC(=O)c1nnn(-c2ccccc2)c1NS(=O)(=O)c1ccc(C)cc1

IC50 (fMet-Leu-Phe receptor [2]): 10 µM
SMILES: CCC(CC)NC(=O)c1cnn(-c2ccccc2Cl)c1NS(=O)(=O)c1ccc(C)cc1

IC50 (fMet-Leu-Phe receptor [2]): 2 µM
SMILES: CCC(CC)NC(=O)c1cnn(-c2ccccc2)c1NS(=O)(=O)c1ccc(C)cc1

IC50 (fMet-Leu-Phe receptor [2]): 5.01 µM
SMILES: Cc1ccc(S(=O)(=O)Nc2c(C(=O)NC3CCOCC3)c(C)nn2-c2ccccc2)cc1

IC50 (fMet-Leu-Phe receptor [2]): 2 µM
SMILES: Cc1ccc(S(=O)(=O)Nc2c(C(=O)NCC(C)(C)C)c(C)nn2-c2ccccc2)cc1

IC50 (fMet-Leu-Phe receptor [2]): 5.01 µM
SMILES: CCC(CC)NC(=O)c1cnn(-c2ccccc2)c1NS(=O)(=O)C1CCCC1

IC50 (fMet-Leu-Phe receptor [2]): 3.98 µM
SMILES: Cc1ccc(S(=O)(=O)Nc2c(C(=O)NC3CCCCC3)cnn2-c2ccccc2)cc1

IC50 (fMet-Leu-Phe receptor [2]): 6.31 µM
SMILES: CCC(CC)NC(=O)c1cnn(-c2ccccc2)c1NS(=O)(=O)c1ccccc1C

IC50 (fMet-Leu-Phe receptor [2]): 10 µM
SMILES: Cc1ccc(S(=O)(=O)Nc2c(C(=O)NCc3ccccc3)cnn2-c2ccccc2)cc1

IC50 (fMet-Leu-Phe receptor [2]): 6.31 µM
SMILES: Cc1ccc(S(=O)(=O)Nc2c(C(=O)NC(C)C)c(C)nn2-c2ccccc2)cc1

IC50 (fMet-Leu-Phe receptor [2]): 10 µM
SMILES: CCC(CC)NC(=O)c1cn(-c2ccccc2)nc1NS(=O)(=O)c1ccc(C)cc1

IC50 (fMet-Leu-Phe receptor [2]): 15.8 µM
SMILES: CCC(CC)NC(=O)c1cnn(-c2ccc(C#N)cc2)c1NS(=O)(=O)c1ccc(C)cc1

IC50 (fMet-Leu-Phe receptor [2]): 5.01 µM
SMILES: CCC(CC)NC(=O)c1cnn(Cc2ccccc2)c1NS(=O)(=O)c1ccc(C)cc1

IC50 (fMet-Leu-Phe receptor [2]): 10 µM
SMILES: Cc1ccc(S(=O)(=O)Nc2c(C(=O)NC3CCOCC3)cnn2-c2ccccc2)cc1

IC50 (fMet-Leu-Phe receptor [2]): 1 µM
SMILES: Cc1nn(-c2ccc(F)cc2)c(NS(=O)(=O)c2cccnc2)c1C(=O)N[C@@H](C)C(C)(C)C

IC50 (fMet-Leu-Phe receptor [2]): 20 µM
SMILES: CCC(CC)NC(=O)c1cnn(-c2ccccn2)c1NS(=O)(=O)c1ccc(C)cc1

IC50 (fMet-Leu-Phe receptor [2]): 1.58 µM
SMILES: Cc1ccc(S(=O)(=O)Nc2c(C(=O)N(C)C3CCCCC3)cnn2-c2ccccc2)cc1

IC50 (fMet-Leu-Phe receptor [2]): 0.158 µM
SMILES: Cc1ccc(S(=O)(=O)Nc2c(C(=O)NC3CCCCC3C)c(C)nn2-c2ccccc2)cc1 (mixture of isomers)

inhibition [1]: < 25%
SMILES: Cc1ccc(S(=O)(=O)Nc2c(C(=O)NC3CCN(C)CC3)cnn2-c2ccccc2)cc1

IC50 (fMet-Leu-Phe receptor [2]): 10 µM
SMILES: CCC(CC)NC(=O)c1cnn(C(C)C)c1NS(=O)(=O)c1ccc(C)cc1

IC50 (fMet-Leu-Phe receptor [2]): 0.158 µM
SMILES: CCC(C)NC(=O)c1c(C)nn(-c2ccccc2)c1NS(=O)(=O)c1ccc(C)cc1 (configuration not stated)

IC50 (fMet-Leu-Phe receptor [2]): 0.316 µM
SMILES: CCCC(CC)NC(=O)c1cnn(-c2ccccc2)c1NS(=O)(=O)c1ccc(C)cc1 (configuration not stated)
